According to patent US9802888B2, “STAT3 inhibitors” (UNIVERSITY OF HAWAII, priority 2013, dated 2017):
“Also recorded” adds a separate entry of the source.

Assays:
Stat1:Stat1 = molecular target: T1, Stat1:Stat1 (Mus musculus, UniProt P42225); experiment: Stat1 DNA-binding activity, EMSA with MGFe probe, nuclear extracts of EGF-stimulated NIH3T3/hEGFR; type: biochemical; conditions: for effect on Stat1:Stat1 DNA-binding activity: EMSA, MGFe probe; for disruption of Stat1 DNA-binding activity: concentrations up to 20 μM
T1 construct: endogenous in cells; host or cells: EGF-stimulated NIH3T3/hEGFR (nuclear extract)
T1 sequence (P42225 2-749 limits assumed): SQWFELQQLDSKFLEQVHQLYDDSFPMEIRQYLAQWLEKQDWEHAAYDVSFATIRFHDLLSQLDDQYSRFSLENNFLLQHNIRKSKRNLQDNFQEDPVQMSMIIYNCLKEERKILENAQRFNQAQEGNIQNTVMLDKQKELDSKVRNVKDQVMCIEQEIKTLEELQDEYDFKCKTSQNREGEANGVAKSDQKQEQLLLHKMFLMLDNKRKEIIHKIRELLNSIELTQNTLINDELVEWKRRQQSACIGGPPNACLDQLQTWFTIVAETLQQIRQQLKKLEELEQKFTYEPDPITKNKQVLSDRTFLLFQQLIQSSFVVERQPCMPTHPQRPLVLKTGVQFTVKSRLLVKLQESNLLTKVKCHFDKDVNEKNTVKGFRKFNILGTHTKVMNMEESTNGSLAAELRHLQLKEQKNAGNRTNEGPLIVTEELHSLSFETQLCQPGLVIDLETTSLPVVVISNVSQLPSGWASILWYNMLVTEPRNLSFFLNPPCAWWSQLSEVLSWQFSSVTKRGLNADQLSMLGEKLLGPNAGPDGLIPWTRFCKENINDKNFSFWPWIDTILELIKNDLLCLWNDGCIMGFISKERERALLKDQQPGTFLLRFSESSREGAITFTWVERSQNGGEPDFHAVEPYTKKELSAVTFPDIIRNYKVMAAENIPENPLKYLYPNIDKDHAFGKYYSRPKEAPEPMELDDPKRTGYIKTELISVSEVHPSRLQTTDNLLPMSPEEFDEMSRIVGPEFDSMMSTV
Procedure: Nuclear extract preparations and electrophoretic mobility shift assay (EMSA) were carried out as previously described. Yu et al., 1995; Turkson et al., Stat3 activation by Src induces specific gene regulation and is required for cell transformation. Mol. Cell. Biol. 18:2545-2552 (1998). The ^32P-labeled oligonucleotide probes used were hSIE (high affinity sis-inducible element from the c-fos gene, m67 variant, 5′-[…]) (SEQ ID NO: 1) that binds Stat1 and Stat3 and MGFe (mammary gland factor element from the bovine β-casein gene promoter, 5′-[…]) (SEQ ID NO: 2) for Stat1 and Stat5 binding. Wagner et al., The SIF binding element confers sis/PDGF inducibility onto the c-fos promoter. EMBO J. 9:4477-4484 (1990); Gouilleux et al., Prolactin and interleukin-2 receptors in T lymphocytes signal through a MGF-STATS-like transcription factor. Endocrinology 136:5700-5708 (1995). Except where indicated, nuclear extracts were pre-incubated with compound for 30 min at room temperature prior to incubation with the radiolabeled probe for 30 min at 30° C. before subjecting to EMSA analysis. Bands corresponding to DNA-binding activities were scanned and quantified for each concentration of compound using ImageQuant and plotted as percent of control (vehicle) against concentration of compound, from which the IC50 values were derived, as previously reported. […] J Biol Chem. 280:32979-32988 (2005).
[…]. Zhang et al. (2012). […]. Siddiquee et al., Selective chemical probe inhibitor of Stat3, identified through structure-based virtual screening, induces antitumor activity, Proc Natl Acad Sci USA. 104:7391-7396 (2007).

[1] = system: pY1068EGFR, pY416Src, pJak2, pShc, pErk1/2, pS473Akt; type: cell-based, human; conditions: concentrations that inhibit intracellular Stat3 activation (3-10 μM)
Text: (§1) FIG. 2. […] Positions of STATs:DNA complexes or proteins in gel are labeled; control lanes (0) represent nuclear extracts treated with 0.05% DMSO, or nuclear extracts or whole-cell lysates prepared from 0.05% DMSO-treated cells. Values shown in each panel are means plus standard deviations of at least four independent transfections, each performed in triplicate. For each transfection, luciferase activity was normalized to transfection efficiency, with β-Gal activity as an internal control. *-<0.05. Data are representative of 3-4 independent determinations. FIG. 2 (H). […] FIG. 2 (I).
(§2) Turkson et al., Novel peptidomimetic inhibitors of signal transducer and activator of transcription 3 dimerization and biological activity. […] Mol. Cell. […] Mol. Cell. […] Mol. Cell.

[2] = system: Bcl-2, Bcl-xL, Cyclin D1, c-Myc, and Survivin; experiment: Immunoblotting of Stat3-regulated gene expression; conditions: MDA-MB-231 and U251 cells; 24 h-treatment (5 uM)
[3] = system: Stat3-dependent luciferase reporter, pLucTKS3; experiment: Stat3-dependent luciferase reporter in NIH3T3 co-transfected with v-Src; type: cell-based, mouse; conditions: 3 or 5 μM
Text: as §1, §2

[4] = system: Stat3-independent luciferase reporter, pLucSRE; experiment: Stat3-independent luciferase reporter in NIH3T3 co-transfected with v-Src; type: cell-based, mouse; conditions: similar treatment (3 or 5 μM)
Text: as §1, §2

U251 cells = experiment: Intracellular levels by LC-MS of cell extracts; type: in vitro ADME, human; conditions: U251 cells treated once with 5 μM
Text: The intracellular and tissue levels of SH5-07 were studied, following a single treatment.

[5] = In vivo pharmacokinetic analysis, serum and brain tissue levels; parameters: species or system mouse; conditions: mice, single dose tail vein injection 3 mg/kg
[6] = system: glioma, breast cancer or pancreatic cancer; experiment: Treatment of subjects with cancer; type: in vivo; conditions: intravenous or oral, 0.08 mg/kg to 0.4 mg/kg
pY705Stat3 = pY705Stat3 (Mus musculus, UniProt P42227); experiment: EGF-induced Stat3 phosphorylation in NIH3T3/hEGFR, immunoblotting; conditions: cells pre-treated for 24 h, 10 μM
Text: (§3) Primary antibodies used were anti-Stat3, pY705Stat3, pY416Src, Src, pErk1/2, Erk1/2, EGFR, pEGFR, pJAK2, c-Myc, Bcl-xL, Bcl-2, Survivin, and β-Actin (Cell Signaling, Danvers), and VEGF (Santa Cruz Biotech, Santa Cruz).

EGF receptor and Stat3 = EGF receptor and Stat3 (Mus musculus, UniProt P42227); experiment: Co-immunoprecipitation of EGF receptor and Stat3 in EGF-stimulated NIH3T3/EGFR; conditions: pre-treatment 10 μM for 5 min to 24 h
Chain of EGF receptor and Stat3 (P42227 2-770 limits assumed): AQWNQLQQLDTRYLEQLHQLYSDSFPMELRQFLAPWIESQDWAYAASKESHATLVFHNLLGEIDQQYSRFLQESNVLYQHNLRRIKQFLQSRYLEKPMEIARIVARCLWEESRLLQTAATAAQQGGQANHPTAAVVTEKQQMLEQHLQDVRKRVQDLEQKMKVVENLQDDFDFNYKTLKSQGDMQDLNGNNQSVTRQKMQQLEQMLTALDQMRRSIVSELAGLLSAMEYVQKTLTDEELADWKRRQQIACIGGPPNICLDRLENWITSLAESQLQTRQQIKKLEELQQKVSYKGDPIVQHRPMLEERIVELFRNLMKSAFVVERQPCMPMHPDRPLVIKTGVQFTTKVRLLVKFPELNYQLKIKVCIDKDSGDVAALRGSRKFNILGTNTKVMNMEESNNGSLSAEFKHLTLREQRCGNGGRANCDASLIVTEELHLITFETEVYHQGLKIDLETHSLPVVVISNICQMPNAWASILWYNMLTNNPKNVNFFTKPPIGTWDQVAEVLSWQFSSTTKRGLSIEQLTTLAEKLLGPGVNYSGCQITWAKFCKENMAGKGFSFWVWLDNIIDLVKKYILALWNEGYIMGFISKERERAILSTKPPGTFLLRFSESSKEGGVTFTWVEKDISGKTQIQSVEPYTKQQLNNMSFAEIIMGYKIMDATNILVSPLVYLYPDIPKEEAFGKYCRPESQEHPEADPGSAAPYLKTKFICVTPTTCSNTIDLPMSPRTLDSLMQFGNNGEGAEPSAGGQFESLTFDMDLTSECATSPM
Text: as §3

Chain of pY705Stat3 (P42227 whole entry): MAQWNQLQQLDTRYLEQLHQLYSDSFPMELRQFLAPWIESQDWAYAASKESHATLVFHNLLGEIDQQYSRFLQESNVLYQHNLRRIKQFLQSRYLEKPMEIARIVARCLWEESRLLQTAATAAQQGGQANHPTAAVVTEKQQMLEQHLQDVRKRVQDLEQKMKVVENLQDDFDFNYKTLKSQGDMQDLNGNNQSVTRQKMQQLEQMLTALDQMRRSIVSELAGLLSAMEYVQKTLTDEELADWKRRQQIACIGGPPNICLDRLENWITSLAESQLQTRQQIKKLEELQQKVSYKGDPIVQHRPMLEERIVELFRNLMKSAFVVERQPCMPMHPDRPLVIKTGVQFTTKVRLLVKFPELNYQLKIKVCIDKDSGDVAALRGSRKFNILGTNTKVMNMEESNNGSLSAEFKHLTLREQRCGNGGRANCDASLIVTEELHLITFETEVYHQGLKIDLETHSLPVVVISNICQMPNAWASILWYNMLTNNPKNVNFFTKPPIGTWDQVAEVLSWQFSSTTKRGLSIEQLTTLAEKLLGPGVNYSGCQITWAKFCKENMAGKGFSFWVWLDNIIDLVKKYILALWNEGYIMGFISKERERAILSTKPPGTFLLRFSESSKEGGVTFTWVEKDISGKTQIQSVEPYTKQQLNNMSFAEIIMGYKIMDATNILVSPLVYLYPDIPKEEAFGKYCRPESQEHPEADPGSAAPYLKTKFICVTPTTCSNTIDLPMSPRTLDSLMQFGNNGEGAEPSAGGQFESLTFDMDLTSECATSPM

Row | Structure (SMILES) | effect on Stat1:Stat1 DNA-binding activity (Stat1:Stat1) | disruption of Stat1 DNA-binding activity (Stat1:Stat1) | effect on phosphorylation of EGFR, Src, Jak2, Shc, ERK1/2, Akt [1] | expression of Stat3-regulated genes [2] | induction by v-Src of pLucTKS3 luciferase reporter [3] | induction of pLucSRE luciferase reporter [4] | intracellular levels at 1 h (U251 cells) | intracellular levels at 6 h (U251 cells) [µM] | intracellular levels at 24 h (U251 cells) | average level in brain tissue at 10 min [5] [fmole/mg tissue] | average level in brain tissue at 60 min [5] [fmole/mg tissue] | concentration at 10 min ([5]; mouse, serum, intravenous, read-out: average level in serum at 10 min post-dosing) [µM] | concentration at 60 min ([5]; mouse, serum, intravenous, read-out: average level in serum at 60 min) [µM] | tumor response in subjects [6] | EGF-induced Stat3 phosphorylation (pY705Stat3) (pY705Stat3) | co-IP between EGF receptor and Stat3 promoted by EGF (EGF receptor and Stat3)
1 | CN(CC(=O)N(Cc1ccc(C2CCCCC2)cc1)c1ccc(C(=O)O)cc1)S(=O)(=O)c1c(F)c(F)c(F)c(F)c1F [SH4-54] | little or no effect; also recorded: minimal effects | little or no disruption | little or no effect | down-regulated | – | – | – | – | – | – | – | – | – | – | – | –
2 | CN(CC(=O)N(Cc1ccc(C2CCCCC2)cc1)c1ccc(C(=O)NO)cc1)S(=O)(=O)c1c(F)c(F)c(F)c(F)c1F [SH5-07] | little or no effect; also recorded: minimal effects | little or no disruption | – | down-regulated; also recorded: significantly suppressed | significantly (p<0.01) inhibited | no attenuating effect | 1,238±181 μM | 27.6 | background levels | 7.76 | 8.19 | 13.5 | 4.67 | shrinkage of the tumors, or slowing of the progession of tumor growth is observed | inhibited | suppressed
